Laboratory results as given in doi:10.1101/094631v2 (biorxiv, 2017).

Target: BIKE kinase domain (biotinylated) (Homo sapiens, UniProt Q9NSY1)
Test: TR-FRET tracer displacement
Type: binding

Chain of BIKE kinase domain (biotinylated) (Q9NSY1 38-345 limits assumed): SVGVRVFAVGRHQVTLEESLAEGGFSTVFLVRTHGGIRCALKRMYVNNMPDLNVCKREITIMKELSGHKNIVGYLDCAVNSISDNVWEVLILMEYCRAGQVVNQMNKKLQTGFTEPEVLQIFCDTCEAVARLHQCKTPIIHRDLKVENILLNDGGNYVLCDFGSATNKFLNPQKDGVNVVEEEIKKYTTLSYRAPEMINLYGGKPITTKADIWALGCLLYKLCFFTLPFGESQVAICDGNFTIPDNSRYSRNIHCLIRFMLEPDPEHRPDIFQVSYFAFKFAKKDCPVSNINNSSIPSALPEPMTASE

Work on CC(C)C(=O)Nc1n[nH]c2cc(-c3cccc(NS(=O)(=O)C4CC4)c3)ccc12 [compound 2, N-(6-(3-(cyclopropanesulfonamido)phenyl)-1H-indazol-3-yl)isobutyramide] yielded a Ki of 3.1 µM.
